These results are taken from patent US5574178A, “4,6-Di-t-butyl-dihydrobenzofuran-5-ol and its derivatives” (Chugai Seiyaku Kabushiki Kaisha, priority 1992, dated 1996).

Assay type in all cases: biochemical
Assay [1] relates to xanthine oxidase (XOD)-hypoxanthine (HX) system (superoxide). Nature of the assay: Xanthine oxidase system (superoxide generating system). Particulars: pH 7.4, 37° C. The protocol:
The test compounds were evaluated under the following conditions for their effect in a reaction due to a xanthine oxidase (XOD)-hypoxanthine (HX) system in aqueous solution.
Xanthine oxidase 0.1 U/ml
Hepes buffer solution (pH 7.4)
(§1) A reaction solution was prepared by mixing hypoxanthine and luminol in the Hepes buffer solution and stored in ice until use. After warming the reaction solution at 37° C. for about 10 min, the reaction was started by addition of the xanthine oxidase solution. A measurement was started right after the addition of xanthine oxidase and subsequent stirring; chemiluminescence intensity was normally measured right after the start of the reaction. In the experimental model, luminol-dependent chemiluminescence induced by superoxide generated by enzymatic reaction of xanthine oxidase was detected, thus enabling the measurement of the reactivity with superoxide.

For assay [2], the system named is lactoperoxidase reaction system (singlet oxygen). In words: Lactoperoxidase system (singlet oxygen system). Particulars: pH 4.5, 37° C. The protocol: The test compounds were evaluated under the following conditions for their effect against a lactoperoxidase reaction system.
Lactoperoxidase 10 μg/ml
Acetate buffer solution (pH 4.5)
as §1, with “hydrogen peroxide, sodium bromide” for “hypoxanthine”, “acetate” for “Hepes”, “lactoperoxidase” for “xanthine oxidase”, “was” for “was normally”, “singlet oxygen” for “superoxide”, “singlet oxygen.” for “superoxide.”

The subject of the next assay is Rabbit LDL. In words: Amount of TBARS (Cu^2+-induced oxidation of rabbit LDL). The following applies: 5 μM Cu^2+. The protocol: Rabbit LDL was prepared in accordance with the method of Havel et al. [Havel, R. J. et al., J. Clin. Invest., 34, (1955)]. After adding 5 μM of Cu^2+, the mixture was warmed until a thiobarbituric acid reactive substance (TBARS) was produced. The test compounds were evaluated for their anti-oxidative action with the amount of TBARS being used as an index. [formula]

Assay [3] has as its target lipid peroxidation due to the autoxidation of linoleic acid. In words: Linoleic acid-MCLA system, Test Case 4. Particulars: linoleic acid 10 mM, MCLA 2 μM, 1-butanol, 37° C.; read-out: 50% inhibition concentration. The protocol: The test compounds were evaluated for their inhibitory effect against lipid peroxidation due to the autoxidation of linoleic acid.
A reaction solution was prepared by mixing linoleic acid and MCLA (2-methyl-6-(p-methoxyphenyl)-3,7-dihydroimidazo[1,2-a]pyrazin-3-one) in 1-butanol and stored in ice until use. An amount of this reaction solution was sampled in a chemiluminescence measuring cell and, immediately thereafter, the intensity of chemiluminescence due to the autoxidation of linoleic acid was measured at 37° C. in a thermostatic bath. A normal chemiluminescence intensity measurement was conducted about 2-4 min later when the chemiluminescence substantially peaked.

As for `CCCCCCCCC1Cc2c(cc(C(C)(C)C)c(O)c2C(C)(C)C)O1` (stereo not shown) [Compound g, 4,6-Di-tert-Butyl-5-Hydroxy-2-Octyl-2,3-Dihydrobenzofuran], the “Chemiluminescence intensity (% of control)” value in assay [1] (at 20 μM of compound) is reported as 88.6 % of control; in assay [1] (at 200 μM of compound) it was 104.8 % of control; in assay [2] (at 20 μM of compound), 97.0 % of control; in assay [2] (at 200 μM of compound), 76.0 % of control. Further, the “TBARS produced (%)” value came to 8.8% in the assay with Rabbit LDL (at 10^-5 M of compound, 10 µM) and 82.6% in the assay on Rabbit LDL (at 10^-6 M of compound, 1 µM).
Consider `CC(C)(C)c1cc2c(C(C)(C)C)c(O)c(C(C)(C)C)cc2o1` [Compound t, 2,4,6-Tri-tert-Butyl-5-Hydroxybenzofuran], for which the “TBARS produced (%)” value in the assay with Rabbit LDL (at 10^-5 M of compound, 10 µM) was found to be 68.0%; with Rabbit LDL (at 10^-6 M of compound, 1 µM), 81.7%.
On the same counts, the results for `CCC1(CC)Cc2c(cc(C(C)(C)C)c(O)c2C(C)(C)C)O1` [Compound d, 4,6-Di-tert-Butyl-2,2-Diethyl-5-Hydroxy-2,3-Dihydrobenzofuran] are 9.4% and 76.9%.
In the same order, the values of `CC(C)(C)c1cc2occc2c(C(C)(C)C)c1O` [Compound r, 4,6-Di-tert-Butyl-5-Hydroxybenzofuran] are 30.1% and 74.2%.
For `CC(C)(C)c1cc2c(c(C(C)(C)C)c1O)CC1(CCCC1)O2` [Compound m, 4,6-Di-tert-Butyl-5-Hydroxy-2,3-Dihydrobenzofuran-2-Spiro-1'-Cyclopentane], the “Chemiluminescence intensity (% of control)” value in assay [1] (at 20 μM of compound) is given as 83.1 % of control; in assay [1] (at 200 μM of compound) it was 89.8 % of control. Further, in assay [3], the IC50 is 7 µM. Besides, the “TBARS produced (%)” value was determined as 11.8% in the assay with Rabbit LDL (at 10^-5 M of compound, 10 µM) and 85.3% with Rabbit LDL (at 10^-6 M of compound, 1 µM).
Turning to `CC(C)(C)c1cc2c(c(C(C)(C)C)c1O)CC(c1ccccc1)(c1ccccc1)O2` [Compound j, 4,6-Di-tert-Butyl-2,2-Diphenyl-5-Hydroxy-2,3-Dihydrobenzofuran], the “TBARS produced (%)” value with Rabbit LDL (at 10^-5 M of compound, 10 µM) came out at 11.6%; in the assay with Rabbit LDL (at 10^-6 M of compound, 1 µM) it was 93.1%.
For the compound `Cc1c(OCCCOc2cc(C(C)(C)C)c(O)c(C(C)(C)C)c2C)cc(C(C)(C)C)c(O)c1C(C)(C)C` [Compound w, 1,3-Bis(3,5-Di-tert-Butyl-4-Hydroxy-2-Methylphenoxy)propane], the “TBARS produced (%)” value in the assay on Rabbit LDL (at 10^-5 M of compound, 10 µM) is listed as 17.2%; in the assay with Rabbit LDL (at 10^-6 M of compound, 1 µM) it was 71.3%.
With `CCCOc1cc(C(C)(C)C)c(O)c(C(C)(C)C)c1C` [Compound u, 2,6-Di-tert-Butyl-3-Methyl-4-Propyloxyphenol], the “TBARS produced (%)” value in the assay with Rabbit LDL (at 10^-5 M of compound, 10 µM) was 47.3%; with Rabbit LDL (at 10^-6 M of compound, 1 µM) it was 87.7%.
Regarding `CC(C)(C)c1c(O)ccc2c1CC(CO)O2` (stereo not shown) [Comparison 3, reference compound], the IC50 in assay [3] was 54 µM.
Regarding `Cc1cc2c(C(C)(C)C)c(O)c(C(C)(C)C)cc2o1` [Compound s, 4,6-Di-tert-Butyl-5-Hydroxy-2-Methylbenzofuran], the “TBARS produced (%)” value in the assay on Rabbit LDL (at 10^-5 M of compound, 10 µM) is on record as 39.2%; in the assay with Rabbit LDL (at 10^-6 M of compound, 1 µM), 75.7%.
On the same counts, the results for `CC1Cc2c(cc(C(C)(C)C)c(O)c2C(C)(C)C)O1` (stereo not shown) [Compound b, 4,6-Di-tert-Butyl-5-Hydroxy-2-Methyl-2,3-Dihydrobenzofuran] are 8.9% and 53.8%.
On to `CC(C)CCC1(CCC(C)C)Cc2c(cc(C(C)(C)C)c(O)c2C(C)(C)C)O1` [Compound z, 2,2-Diisoamyl-4,6-Di-tert-Butyl-5-Hydroxy-2,3-Dihydrobenzofuran], for which the “Chemiluminescence intensity (% of control)” value was 99.2 % of control in assay [1] (at 20 μM of compound) and 107.5 % of control in assay [1] (at 200 μM of compound). Further, the IC50 in assay [3] is 6 µM. In addition, the “TBARS produced (%)” value with Rabbit LDL (at 10^-5 M of compound, 10 µM) is 22.9%; with Rabbit LDL (at 10^-6 M of compound, 1 µM), 77.5%.
On to `CC(C)C1(C(C)C)Cc2c(cc(C(C)(C)C)c(O)c2C(C)(C)C)O1` [Compound i, 4,6-Di-tert-Butyl-2,2-Di-i-Propyl-5-Hydroxy-2,3-Dihydrobenzofuran], for which the “TBARS produced (%)” value is on record as 10.3% with Rabbit LDL (at 10^-5 M of compound, 10 µM) and 90.8% in the assay with Rabbit LDL (at 10^-6 M of compound, 1 µM).
For the compound `CC(C)(C)c1cc2c(cc1O)CC(C(C)(C)C)O2` (stereo not shown) [Comparison 4, reference compound], the IC50 in assay [3] stood at 42 µM.
Take `CC(C)(C)c1cc2c(c(C(C)(C)C)c1O)CC(Cc1ccccc1)(Cc1ccccc1)O2` [Compound k, 4,6-Di-tert-Butyl-2,2-Dibenzyl-5-Hydroxy-2,3-Dihydrobenzofuran]: the “TBARS produced (%)” value with Rabbit LDL (at 10^-5 M of compound, 10 µM) was 11.1%; in the assay on Rabbit LDL (at 10^-6 M of compound, 1 µM), 93.0%.
In the same order, the values of `CC(C)(C)c1cc2c(c(C(C)(C)C)c1O)CC(CCl)O2` (stereo not shown) [l, 4,6-tert-Butyl-2-Chloromethyl-5-Hydroxy-2,3-Dihydrobenzofuran] are 8.1% and 11.5%.
For the compound `CC(C)(C)c1cc2c(c(C(C)(C)C)c1O)CC1(CCCCCCC1)O2` [Compound p, 4,6-Di-tert-Butyl-5-Hydroxy-2,3-Dihydrobenzofuran-2-Spiro-1'-Cyclooctane], the “TBARS produced (%)” value in the assay on Rabbit LDL (at 10^-5 M of compound, 10 µM) is listed as 22.0%; in the assay on Rabbit LDL (at 10^-6 M of compound, 1 µM) it was 91.8%.
Turning to `CCCCCCCCC1(CCCCCCCC)Cc2c(cc(C(C)(C)C)c(O)c2C(C)(C)C)O1` [Compound y, 4,6-Di-tert-Butyl-2,2-Di-n-Octyl-5-Hydroxy-2,3-Dihydrobenzofuran], the “Chemiluminescence intensity (% of control)” value in assay [1] (at 20 μM of compound) is 94.2 % of control; in assay [1] (at 200 μM of compound) it was 110.2 % of control. Moreover, the “TBARS produced (%)” value was 72.3% in the assay with Rabbit LDL (at 10^-5 M of compound, 10 µM) and 85.4% in the assay with Rabbit LDL (at 10^-6 M of compound, 1 µM).
For `CCCC1(CCC)Cc2c(cc(C(C)(C)C)c(O)c2C(C)(C)C)O1` [Compound e, 4,6-Di-tert-Butyl-2,2-Di-n-Propyl-5-Hydroxy-2,3-Dihydrobenzofuran], the “TBARS produced (%)” value came to 13.5% in the assay with Rabbit LDL (at 10^-5 M of compound, 10 µM) and 86.3% in the assay on Rabbit LDL (at 10^-6 M of compound, 1 µM).
Regarding `CC(C)(C)c1cc2c(c(C(C)(C)C)c1O)CC1(CCCCC1)O2` [Compound n, 4,6-Di-tert-Butyl-5-Hydroxy-2,3-Dihydrobenzofuran-2-Spiro-1'-cyclohexane], the “Chemiluminescence intensity (% of control)” value was 100.3 % of control in assay [1] (at 20 μM of compound) and 104.9 % of control in assay [1] (at 200 μM of compound). For the same compound, the IC50 in assay [3] was 9 µM. The “TBARS produced (%)” value in the assay with Rabbit LDL (at 10^-5 M of compound, 10 µM) was 15.6%; in the assay with Rabbit LDL (at 10^-6 M of compound, 1 µM), 76.2%.
Regarding `CC(C)(C)c1cc2c(c(C(C)(C)C)c1O)CC(C(C)(C)C)O2` (stereo not shown) [Compound h, 2,4,6-Tri-tert-Butyl-5-Hydroxy-2,3-Dihydrobenzofuran], in assay [3], the IC50 came to 9 µM. Also, the “TBARS produced (%)” value is 10.6% with Rabbit LDL (at 10^-5 M of compound, 10 µM) and 74.0% in the assay with Rabbit LDL (at 10^-6 M of compound, 1 µM).
Turning to `C=CCOc1cc(C(C)(C)C)c(O)c(C(C)(C)C)c1C` [Compound v, 4-Allyloxy-2,6-Di-tert-Butyl-3-Methylphenol], the “TBARS produced (%)” value is given as 80.3% in the assay on Rabbit LDL (at 10^-5 M of compound, 10 µM) and 99.3% in the assay on Rabbit LDL (at 10^-6 M of compound, 1 µM).
On the same counts, the results for `CC(C)(C)c1cc2c(c(C(C)(C)C)c1O)CC1(CCCCCC1)O2` [Compound o, 4,6-Di-tert-Butyl-5-Hydroxy-2,3-Dihydrobenzofuran-2-Spiro-1'-Cycloheptane] are 9.0% and 91.2%.
As for `CC1(C)Cc2c(cc(C(C)(C)C)c(O)c2C(C)(C)C)O1` [Compound c, 5-Hydroxy-4,6-Di-tert-Butyl-2,2-Dimethyl-2,3-Dihydrobenzofuran], the IC50 in assay [3] was found to be 7 µM. Also, the “TBARS produced (%)” value with Rabbit LDL (at 10^-5 M of compound, 10 µM) was determined as 9.2%; in the assay with Rabbit LDL (at 10^-6 M of compound, 1 µM), 55.3%.
Consider `CCCCC1(CCCC)Cc2c(cc(C(C)(C)C)c(O)c2C(C)(C)C)O1` [Compound f, 4,6-Di-tert-Butyl-2,2-Di-n-Butyl-5-Hydroxy-2,3-Dihydrobenzofuran], for which the “Chemiluminescence intensity (% of control)” value is recorded as 91.0 % of control in assay [1] (at 20 μM of compound) and 102.4 % of control in assay [1] (at 200 μM of compound). In addition, the IC50 in assay [3] turned out to be 8 µM. Besides, the “TBARS produced (%)” value was 12.2% in the assay with Rabbit LDL (at 10^-5 M of compound, 10 µM) and 81.6% in the assay with Rabbit LDL (at 10^-6 M of compound, 1 µM).
On to `CCCCCC1(CCCCC)Cc2c(cc(C(C)(C)C)c(O)c2C(C)(C)C)O1` [Compound x, 4,6-Di-tert-Butyl-2,2-Di-n-Pentyl-5-Hydroxy-2,3-Dihydrobenzofuran], for which the “Chemiluminescence intensity (% of control)” value was 84.5 % of control in assay [1] (at 20 μM of compound) and 85.6 % of control in assay [1] (at 200 μM of compound). Also, in assay [3], the IC50 amounted to 5 µM. Besides, the “TBARS produced (%)” value was 42.1% in the assay with Rabbit LDL (at 10^-5 M of compound, 10 µM) and 96.3% with Rabbit LDL (at 10^-6 M of compound, 1 µM).
